According to patent publication US8198273B2, “Compounds and methods for kinase modulation, and indications therefor” (Plexxikon Inc., priority 2009, dated 2012):

Tests used:
A-Raf = molecular target: T1, A-Raf (Homo sapiens, UniProt P10398); assay: A-Raf biochemical kinase inhibition (AlphaScreen, biotin-MEK1 substrate); details: 100 μM ATP
T1 sequence (P10398 1-606): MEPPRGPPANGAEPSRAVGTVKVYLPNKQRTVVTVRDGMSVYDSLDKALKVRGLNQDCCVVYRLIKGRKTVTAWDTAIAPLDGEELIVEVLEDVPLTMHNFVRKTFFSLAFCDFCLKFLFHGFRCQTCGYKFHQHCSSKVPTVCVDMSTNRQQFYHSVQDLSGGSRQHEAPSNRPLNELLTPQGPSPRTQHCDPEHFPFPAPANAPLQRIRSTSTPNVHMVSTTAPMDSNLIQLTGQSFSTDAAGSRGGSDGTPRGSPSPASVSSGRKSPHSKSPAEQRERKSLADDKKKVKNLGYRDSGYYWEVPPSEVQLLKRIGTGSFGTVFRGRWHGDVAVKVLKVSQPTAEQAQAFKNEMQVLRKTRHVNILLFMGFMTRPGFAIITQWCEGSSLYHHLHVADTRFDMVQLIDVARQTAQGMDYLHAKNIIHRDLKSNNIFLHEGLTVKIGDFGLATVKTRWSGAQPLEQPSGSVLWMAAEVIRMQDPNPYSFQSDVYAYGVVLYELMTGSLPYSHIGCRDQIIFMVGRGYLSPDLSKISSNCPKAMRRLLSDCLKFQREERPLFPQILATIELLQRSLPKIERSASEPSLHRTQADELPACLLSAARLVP
Description: Compounds to be tested are diluted in dimethyl sulfoxide to a concentration of 0.1 mM. These are serially diluted 15 μL into 30 μL of dimethyl sulfoxide seven times in 96 well plates for a total of 8 dilution points, and for each dilution point 1 μL is added to a well of an assay plate. […] The reaction is started with addition of 10 μL of 200 μM ATP (i.e. final 100 μM ATP). […] The plates are incubated for 3 hours at room temperature and read on Envision reader (Perkin Elmer). […] The signal vs. compound concentration is used to determine the IC50.

B-Raf = B-Raf (Homo sapiens, UniProt P15056); assay: B-Raf biochemical kinase inhibition (AlphaScreen, biotin-MEK1 substrate); details: 100 μM ATP
Method in brief: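 Serial 1:3 dilutions of compound (0.1 mM DMSO stock, eight points) were added first, then ATP to start the reaction at 100 μM final.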

[1] = Relative solubility by turbidity in aqueous buffers of varying pH; assay type: physicochemical; details: for turbidity threshold (L, M, H) 7.4: HEPES pH 7.4; for turbidity threshold (L, M, H) 4.5: SIF pH 4.5; for turbidity threshold (L, M, H) 6.8: SIF pH 6.8; for turbidity threshold (L, M, H) 1.4: buffer pH 1.4 (SGF)
Method in brief: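 Turbidity endpoint: concentration where optical density at 490, 535 and 650 nm exceeds 0.01, three-wavelength average used. Buffers at pH 1.5, 4.5, 6.8 and 7.4; DMSO serial dilutions of 25 mM stock spiked 1 μL into 99 μL buffer. Low <31.3, moderate 31.3–250, high >250 μM.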

CYP3A4(BFC) = CYP3A4(BFC) (Homo sapiens, UniProt P08684); assay: CYP3A4(BFC) inhibition (fluorescent substrate); assay type: in vitro ADME; details: read-out: Cyp IC50 3A4(BFC)
Method in brief: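 Compound, from a 100 mM DMSO stock and diluted 1:1 over 10 points in co-factor mix, was incubated at 37° C with enzyme and a known substrate. Decrease in fluorescent product against concentration gave the IC50.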

CYP3A4(BFC), sequence (P08684 whole entry): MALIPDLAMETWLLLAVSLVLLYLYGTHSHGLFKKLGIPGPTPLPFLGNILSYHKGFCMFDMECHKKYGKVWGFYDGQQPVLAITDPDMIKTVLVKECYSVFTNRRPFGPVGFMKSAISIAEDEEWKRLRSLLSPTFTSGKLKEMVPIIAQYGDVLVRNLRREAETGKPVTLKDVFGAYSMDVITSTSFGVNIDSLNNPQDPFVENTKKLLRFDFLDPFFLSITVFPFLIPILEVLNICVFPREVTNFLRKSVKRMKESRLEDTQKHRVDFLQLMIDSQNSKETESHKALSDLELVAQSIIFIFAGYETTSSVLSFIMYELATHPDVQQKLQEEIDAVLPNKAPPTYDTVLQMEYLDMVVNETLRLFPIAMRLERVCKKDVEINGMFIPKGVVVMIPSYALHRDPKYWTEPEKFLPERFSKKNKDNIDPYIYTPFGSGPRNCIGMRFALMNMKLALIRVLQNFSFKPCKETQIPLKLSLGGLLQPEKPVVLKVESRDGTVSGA
B-Raf, sequence (P15056 whole entry): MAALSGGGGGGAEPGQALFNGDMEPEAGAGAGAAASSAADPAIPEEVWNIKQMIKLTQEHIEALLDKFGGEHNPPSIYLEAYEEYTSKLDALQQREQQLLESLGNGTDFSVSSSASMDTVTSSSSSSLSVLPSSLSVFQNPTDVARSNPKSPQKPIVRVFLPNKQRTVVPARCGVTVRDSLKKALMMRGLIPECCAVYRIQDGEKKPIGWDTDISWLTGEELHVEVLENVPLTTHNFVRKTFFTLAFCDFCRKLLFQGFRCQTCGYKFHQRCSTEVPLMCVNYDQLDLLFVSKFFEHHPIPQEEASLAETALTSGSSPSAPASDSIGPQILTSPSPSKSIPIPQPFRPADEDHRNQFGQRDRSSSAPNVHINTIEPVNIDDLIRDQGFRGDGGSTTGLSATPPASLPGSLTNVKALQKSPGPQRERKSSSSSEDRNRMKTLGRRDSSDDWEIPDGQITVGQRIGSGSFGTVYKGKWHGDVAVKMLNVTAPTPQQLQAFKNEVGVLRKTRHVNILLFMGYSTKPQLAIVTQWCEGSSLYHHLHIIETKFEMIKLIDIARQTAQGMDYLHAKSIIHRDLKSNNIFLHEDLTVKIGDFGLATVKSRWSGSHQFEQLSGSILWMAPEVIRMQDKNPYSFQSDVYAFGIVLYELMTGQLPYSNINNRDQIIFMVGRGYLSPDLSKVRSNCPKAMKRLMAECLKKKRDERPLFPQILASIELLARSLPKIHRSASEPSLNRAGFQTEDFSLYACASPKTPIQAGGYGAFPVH

IC50 (A-Raf) [nM]	IC50 (B-Raf) [nM]	IC50 (CYP3A4(BFC)) [nM]	Compound	turbidity threshold (L, M, H) 7.4 [1]	turbidity threshold (L, M, H) 4.5 [1]	turbidity threshold (L, M, H) 6.8 [1]	turbidity threshold (L, M, H) 1.4 [1]
< 10	< 100	> 10000	O=C(c1c(F)ccc(NS(=O)(=O)c2ccccc2F)c1F)c1c[nH]c2nccc(Cl)c12 [P-2017, N-[3-(4-Chloro-1H-pyrrolo[2,3-b]pyridine-3-carbonyl)-2,4-difluoro-phenyl]-2-fluoro-benzenesulfonamide]	M (moderate solubility if the threshold concentration is 31.3 μM to 250 μM)	M (moderate solubility if the threshold concentration is 31.3 μM to 250 μM)	M (moderate solubility if the threshold concentration is 31.3 μM to 250 μM)	M (moderate solubility if the threshold concentration is 31.3 μM to 250 μM)
< 10	< 10	> 10000	N#Cc1ccnc2[nH]cc(C(=O)c3c(F)ccc(NS(=O)(=O)c4cccc(F)c4)c3F)c12 [P-2039, N-[3-(4-Cyano-1H-pyrrolo[2,3-b]pyridine-3-carbonyl)-2,4-difluoro-phenyl]-3-fluoro-benzenesulfonamide]				
< 10	< 10	5000 to 10000	N#Cc1ccnc2[nH]cc(C(=O)c3c(F)ccc(NS(=O)(=O)c4cccnc4)c3F)c12 [P-2077, Pyridine-3-sulfonic acid [3-(4-cyano-1H-pyrrolo[2,3-b]pyridine-3-carbonyl)-2,4-difluoro-phenyl]-amide]				
	< 100	> 10000	Cc1cnc2[nH]cc(C(=O)c3c(F)ccc(NS(=O)(=O)c4c(F)cccc4F)c3F)c2c1 [P-2024, N-[2,4-Difluoro-3-(5-methyl-1H-pyrrolo[2,3-b]pyridine-3-carbonyl)-phenyl]-2,6-difluoro-benzenesulfonamide]	M (moderate solubility if the threshold concentration is 31.3 μM to 250 μM)	L (low solubility if the threshold concentration is <31.3 04)	M (moderate solubility if the threshold concentration is 31.3 μM to 250 μM)	M (moderate solubility if the threshold concentration is 31.3 μM to 250 μM)
	< 10	> 10000	N#Cc1cnc2[nH]cc(C(=O)c3cccc(NS(=O)(=O)c4cccc(F)c4)c3F)c2c1 [P-2053, N-[3-(5-Cyano-1H-pyrrolo[2,3-b]pyridine-3-carbonyl)-2-fluoro-phenyl]-3-fluoro-benzenesulfonamide]	M (moderate solubility if the threshold concentration is 31.3 μM to 250 μM)	L (low solubility if the threshold concentration is <31.3 04)	M (moderate solubility if the threshold concentration is 31.3 μM to 250 μM)	L (low solubility if the threshold concentration is <31.3 04)
	< 10	> 10000	CCCS(=O)(=O)Nc1ccc(F)c(C(=O)c2c[nH]c3ncc(-c4cn[nH]c4)cc23)c1F [P-2174, Propane-1-sulfonic acid {2,4-difluoro-3-[5-(1H-pyrazol-4-yl)-1H-pyrrolo[2,3-b]pyridine-3-carbonyl]-phenyl}-amide]	L (low solubility if the threshold concentration is <31.3 04)	L (low solubility if the threshold concentration is <31.3 04)	L (low solubility if the threshold concentration is <31.3 04)	L (low solubility if the threshold concentration is <31.3 04)
	< 10	> 10000	CCCS(=O)(=O)Nc1ccc(F)c(C(=O)c2c[nH]c3ncc(-c4ccc(S(C)(=O)=O)cc4)cc23)c1F [P-2183, Propane-1-sulfonic acid {2,4-difluoro-3-[5-(4-methanesulfonyl-phenyl)-1H-pyrrolo[2,3-b]pyridine-3-carbonyl]-phenyl}-amide]	L (low solubility if the threshold concentration is <31.3 04)	L (low solubility if the threshold concentration is <31.3 04)	L (low solubility if the threshold concentration is <31.3 04)	L (low solubility if the threshold concentration is <31.3 04)
	< 10	> 10000	CCCS(=O)(=O)Nc1ccc(F)c(C(=O)c2c[nH]c3ncc(-c4ccc(C(=O)NCC)nc4)cc23)c1F [P-2151, 5-{3-[2,6-Difluoro-3-(propane-1-sulfonylamino)-benzoyl]-1H-pyrrolo[2,3-b]pyridin-5-yl}-pyridine-2-carboxylic acid ethylamide]	L (low solubility if the threshold concentration is <31.3 04)	L (low solubility if the threshold concentration is <31.3 04)	L (low solubility if the threshold concentration is <31.3 04)	L (low solubility if the threshold concentration is <31.3 04)

Second part, the compound before the results:

Compound	IC50 (A-Raf) [nM]	IC50 (B-Raf) [nM]	IC50 (CYP3A4(BFC)) [nM]	turbidity threshold (L, M, H) 7.4 [1]	turbidity threshold (L, M, H) 4.5 [1]	turbidity threshold (L, M, H) 6.8 [1]	turbidity threshold (L, M, H) 1.4 [1]
CCCS(=O)(=O)Nc1ccc(F)c(C(=O)c2c[nH]c3ncc(-c4ccc(NS(C)(=O)=O)cc4)cc23)c1F [P-2165, Propane-1-sulfonic acid {2,4-difluoro-3-[5-(4-methanesulfonylamino-phenyl)-1H-pyrrolo[2,3-b]pyridine-3-carbonyl]-phenyl}-amide]	< 10	< 10	> 10000	L (low solubility if the threshold concentration is <31.3 04)	L (low solubility if the threshold concentration is <31.3 04)	L (low solubility if the threshold concentration is <31.3 04)	L (low solubility if the threshold concentration is <31.3 04)
N#Cc1ccnc2[nH]cc(C(=O)c3c(F)ccc(NS(=O)(=O)c4cc(F)ccc4F)c3F)c12 [P-2036, N-[3-(4-Cyano-1H-pyrrolo[2,3-b]pyridine-3-carbonyl)-2,4-difluoro-phenyl]-2,5-difluoro-benzenesulfonamide]	< 10	< 10	> 10000				
CCCS(=O)(=O)Nc1ccc(F)c(C(=O)c2c[nH]c3ncc(-c4ccc(N5CCCC5)nc4)cc23)c1F [P-2231, Propane-1-sulfonic acid {2,4-difluoro-3-[5-(6-pyrrolidin-1-yl-pyridin-3-yl)-1H-pyrrolo[2,3-b]pyridine-3-carbonyl]-phenyl}-amide]	< 10	< 10	> 10000	L (low solubility if the threshold concentration is <31.3 04)	L (low solubility if the threshold concentration is <31.3 04)	L (low solubility if the threshold concentration is <31.3 04)	L (low solubility if the threshold concentration is <31.3 04)
COc1ccnc2[nH]cc(C(=O)c3c(F)ccc(NS(=O)(=O)c4cc(F)ccc4F)c3F)c12 [P-2022, N-[2,4-Difluoro-3-(4-methoxy-1H-pyrrolo[2,3-b]pyridine-3-carbonyl)-phenyl]-2,5-difluoro-benzenesulfonamide]	< 100	< 100		H (high solubility if the threshold concentration is >250 μM)	M (moderate solubility if the threshold concentration is 31.3 μM to 250 μM)	M (moderate solubility if the threshold concentration is 31.3 μM to 250 μM)	H (high solubility if the threshold concentration is >250 μM)
N#Cc1ccnc2[nH]cc(C(=O)c3c(F)ccc(NS(=O)(=O)c4c(F)cccc4F)c3F)c12 [P-2037, N-[3-(4-Cyano-1H-pyrrolo[2,3-b]pyridine-3-carbonyl)-2,4-difluoro-phenyl]-2,6-difluoro-benzenesulfonamide]	< 10	< 100	> 10000				
CCCc1ccc(-c2cnc3[nH]cc(C(=O)c4c(F)ccc(NS(=O)(=O)CCC)c4F)c3c2)cn1 [P-2224, Propane-1-sulfonic acid {2,4-difluoro-3-[5-(6-propyl-pyridin-3-yl)-1H-pyrrolo[2,3-b]pyridine-3-carbonyl]-phenyl}-amide]	< 10	< 10	> 10000				
